Measured values published in patent US4278663A, “Antibiotic X-14868A, B, C and D” (Hoffmann-La Roche Inc., priority 1980, dated 1981).
In brackets after ≈: the same amount, converted by molar mass. Where two headings read alike, the source gives them in different places. Blank lines part the entries; values can stand above or below the molecule they belong to.

Tests used:
Bacillus sp.E ATCC 27859 = assay: Antimicrobial activity, Minimum Inhibitory Concentration (Table 4); assay type: cell-based; settings: G (+) rods
[1] = test system: Mycobacterium phlei 78 ATCC 355; assay: as above; assay type: cell-based; settings: G (+) filaments
[2] = test system: Bacillus subtilis NRRL 558; assay: as above; assay type: cell-based; settings: G (+) rods
[3] = test system: Streptococcus faecium ATCC 8043; assay: as above; assay type: cell-based; settings: G (+) cocci
Treponema hyodysenteriae = assay: Minimum Inhibitory Concentration against Treponema hyodysenteriae (Table 7); assay type: cell-based; settings: for MIC: Brachyspira hyodysenteriae
Description: The compound was examined for activity against Treponema hyodysenteriae, the etiologic agent of swine dysentery. The results which represent a comparative test following well-known test methods versus a known agent in the treatment and prevention of swine dysentery are set forth in the table below.

ruminants = assay: Growth promotion / efficiency of feed utilization in ruminants; assay type: in vivo; settings: result in words
[4] = test system: Sarcina lutea PCI ATCC 9341; assay: Antimicrobial activity, Minimum Inhibitory Concentration (Table 4); assay type: cell-based; settings: G (+) cocci
[5] = test system: Saccharomyces cerevisiae 90 NRRL 4226; assay: as above; assay type: cell-based; settings: Yeast
[6] = test system: Staphylococcus aureus 82 ATCC 6538p; assay: as above; assay type: cell-based; settings: G (+) cocci
[7] = test system: in vitro rumen fermentations; assay: Volatile fatty acid ratio in in vitro rumen fermentations (Table 6); design: species or system steer; settings: for VFA Molor Ratio C3 /(C2 +nC4): four hours, 38° C.; for % Positive Control: relative to monensin 50 ppm
Description: Rumen fluid is obtained from a steer with a fistulated rumen. The steer is maintained on the following ration:
The rumen fluid is immediately strained through a #30 mesh sieve. For each fermentation, 75 ml of the resulting fluid is added to a 250 ml flask containing the following:
1 g of 80%:20% finely ground grain: hay ration;
60 micromoles of each of the 10 essential amino acids (arginine, histidine, leucine, methionine, threonine, valine, lysine, isoleucine, phenylalanine,tryptophan);
Each flask is incubated at 38° C. in a shaking water bath equipped with a gassing hood. Carbon dioxide is continuously passed through the hood. […] The resulting fluid is permitted to sit at room temperature for 30 minutes. The fluid is filtered through a […] Millipore filter and refrigerated until gas-liquid chromatographic analysis for volatile fatty acids.

[8] = test system: Paecilomyces varioti M16 ATCC 26820; assay: Antimicrobial activity, Minimum Inhibitory Concentration (Table 4); assay type: cell-based; settings: Molds
[9] = test system: Penicillin digitatum 0184 ATCC 26821; assay: as above; assay type: cell-based; settings: Molds
[10] = test system: Streptomyces cellulosae 097 ATCC 3313; assay: as above; assay type: cell-based; settings: G (+) filaments
[11] = test system: Candida albicans 155 NRRL 477; assay: as above; assay type: cell-based; settings: Yeast
[12] = test system: Bacillus megaterium 164 ATCC 8011; assay: as above; assay type: cell-based; settings: G (+) rods

SMILES: CO[C@@H]1[C@@H](OC)[C@H](C)[C@@](O)(CC(=O)O)O[C@H]1[C@H](C)[C@H]1O[C@@]2(CC[C@@](C)([C@H]3CC[C@@](C)([C@@H]4O[C@@H]([C@H]5O[C@](C)(O)[C@H](C)C[C@@H]5C)C[C@@H]4O[C@@H]4C[C@H](OC)[C@@H](OC)[C@H](C)O4)O3)O2)C[C@H](O)[C@H]1C.N [Antibiotic X-14868A]
- Minimum Inhibitory Concentration (Bacillus sp.E ATCC 27859): 0.39 µg/mL
- Minimum Inhibitory Concentration [1]: 12.5 µg/mL
- Minimum Inhibitory Concentration [2]: 12.5 µg/mL
- Minimum Inhibitory Concentration [3]: 0.313 µg/mL
- Minimum Inhibitory Concentration, Mean (Treponema hyodysenteriae; mean of four strains): 0.05 meg/ml
- Minimum Inhibitory Concentration (Treponema hyodysenteriae; strain B 169): 0.05 meg/ml
- Minimum Inhibitory Concentration (Treponema hyodysenteriae; strain H 140): 0.05 meg/ml
- Minimum Inhibitory Concentration (Treponema hyodysenteriae; strain H-78): 0.05 meg/ml
- Minimum Inhibitory Concentration (Treponema hyodysenteriae; strain SQ 2): 0.05 meg/ml
- efficiency of feed utilization in ruminant animals (ruminants; oral): increases the efficiency of feed utilization in ruminant animals
- activity as a growth promotant in ruminants (ruminants): exhibit activity as a growth promotant in ruminants
- Minimum Inhibitory Concentration [4]: 12.5 µg/mL
- Minimum Inhibitory Concentration [5]: 1000 µg/mL
- Minimum Inhibitory Concentration [6]: 6.25 µg/mL
- VFA Molor Ratio C3 /(C2 +nC4) ([7]; 5 ppm): 0.323
- % Positive Control ([7]; 5 ppm): 82.5%
- VFA Molor Ratio C3 /(C2 +nC4) ([7]; 50 ppm): 0.358
- % Positive Control ([7]; 50 ppm): 91.2%
- Minimum Inhibitory Concentration [8]: 250 µg/mL
- Minimum Inhibitory Concentration [9]: 1000 µg/mL
- Minimum Inhibitory Concentration [10]: 25 µg/mL
- Minimum Inhibitory Concentration [11]: 250 µg/mL
- Minimum Inhibitory Concentration [12]: 12.5 µg/mL

- MIC (Treponema hyodysenteriae; mean of four strains, read-out: Minimum Inhibitory Concentration, Mean): 1.1 µg/mL (≈ 6.5 µM)
- MIC (Treponema hyodysenteriae; strain B 169, read-out: Minimum Inhibitory Concentration): 0.63 µg/mL (≈ 3.72 µM)
- MIC (Treponema hyodysenteriae; strain H 140, read-out: Minimum Inhibitory Concentration): 0.63 µg/mL (≈ 3.72 µM)
- MIC (Treponema hyodysenteriae; strain H-78, read-out: Minimum Inhibitory Concentration): 0.63 µg/mL (≈ 3.72 µM)
- MIC (Treponema hyodysenteriae; strain SQ 2, read-out: Minimum Inhibitory Concentration): 2.5 µg/mL (≈ 14.8 µM)
SMILES: CC(C)c1ncc([N+](=O)[O-])n1C [Ipronidazole, reference compound]

SMILES: CC[C@@]1([C@@H]2O[C@@H]([C@H]3O[C@@](O)(CO)[C@H](C)C[C@@H]3C)C[C@@H]2C)CC[C@H]([C@]2(C)CC[C@]3(C[C@H](O)[C@@H](C)[C@@H]([C@@H](C)[C@@H](OC)[C@H](C)C(=O)O)O3)O2)O1 [Monensin, reference compound]
- VFA Molor Ratio C3 /(C2 +nC4) ([7]; 50 ppm): 0.392
- % Positive Control ([7]; 50 ppm): 100.0%
